From ChEMBL document CHEMBL1201862, “PubChem BioAssay data set” (2004)
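Grown in 96-well plates, cells were treated for 48 hours with each compound at five concentrations. Insufficient inhibition: endpoint recorded as highest concentration tested. GI50: concentration for 50% inhibition of growth.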 Active and inactive are the calls of the source. Rule as the data show it: active = GI50 up to about 1.1 µM and inactive = higher.

What was measured:
Experiment in all cases: inhibition of tumour cell growth, NCI panel, 48 h
HCT-116 = system: HCT-116
NCI-H226 = system: NCI-H226
HT-29 = system: HT-29
RXF 393 = system: RXF 393
U-251 = system: U-251
SF-295 = system: SF-295
MDA-MB-435 = system: MDA-MB-435
SN12C = system: SN12C
OVCAR-8 = system: OVCAR-8
NCI-H522 = system: NCI-H522
HCC 2998 = system: HCC 2998
SNB-19 = system: SNB-19
MCF7 = system: MCF7
UO-31 = system: UO-31
A549 = system: A549
786-0 = system: 786-0
CAKI-1 = system: CAKI-1
SK-OV-3 = system: SK-OV-3
RPMI-8226 = system: RPMI-8226
Hs-578T = system: Hs-578T

Measured: GI50

O=C(O)CCSc1nnc(COc2ccc(Cl)cc2)n1-c1ccccc1
inactive: HCT-116 > 100 µM | NCI-H226 > 100 µM | HT-29 > 100 µM | RXF 393 > 100 µM | U-251 > 100 µM | SF-295 > 100 µM | MDA-MB-435 > 100 µM | SN12C > 100 µM | OVCAR-8 > 100 µM | NCI-H522 > 100 µM | HCC 2998 > 100 µM | SNB-19 > 100 µM | MCF7 > 100 µM | UO-31 > 100 µM | A549 > 100 µM | 786-0 > 100 µM | CAKI-1 > 100 µM | SK-OV-3 > 100 µM

Oc1ccc(Br)cc1/C=N/c1ccc(Oc2ccc(/N=C/c3cc(Br)ccc3O)cc2)cc1
inactive: HCT-116 > 19.6 µM | NCI-H226 > 19.6 µM | HT-29 > 19.6 µM | RXF 393 > 19.6 µM | U-251 > 19.6 µM | SF-295 > 19.6 µM | RPMI-8226 > 19.6 µM | SN12C > 19.6 µM | OVCAR-8 > 19.6 µM | NCI-H522 > 19.6 µM | HCC 2998 > 19.6 µM | SNB-19 > 19.6 µM | UO-31 > 19.6 µM | A549 > 19.6 µM | 786-0 > 19.6 µM | CAKI-1 > 19.6 µM | SK-OV-3 > 19.6 µM

Clc1ccc2[nH]c(CC3CCCC3)nc2c1
inactive: HCT-116 16.1 µM | NCI-H226 17.7 µM | HT-29 12.2 µM | RXF 393 14.7 µM | U-251 17.6 µM | SF-295 16.1 µM | MDA-MB-435 6.52 µM | RPMI-8226 12.1 µM | SN12C 16.9 µM | OVCAR-8 25.6 µM | NCI-H522 5.74 µM | HCC 2998 20 µM | SNB-19 23.4 µM | MCF7 6.61 µM | A549 21.7 µM | 786-0 16.6 µM | CAKI-1 3.31 µM | SK-OV-3 22.3 µM

C[C@H](C1CC2(C)OC2(C)C(=O)O1)[C@H]1CC[C@H]2[C@@H]3[C@@H]4O[C@@H]4[C@@]4(O)CC=CC(=O)[C@]4(C)[C@H]3CC[C@]12C (stereo partly drawn)
inactive: HCT-116 > 50 µM | NCI-H226 > 50 µM | HT-29 > 50 µM | RXF 393 9.71 µM | U-251 > 50 µM | SF-295 > 50 µM | MDA-MB-435 > 50 µM | RPMI-8226 > 50 µM | SN12C > 50 µM | OVCAR-8 > 50 µM | NCI-H522 36.6 µM | HCC 2998 > 50 µM | SNB-19 29.6 µM | MCF7 > 50 µM | UO-31 12.3 µM | A549 > 50 µM | 786-0 > 50 µM | CAKI-1 > 50 µM | SK-OV-3 > 50 µM

O=C(Cc1ccc([N+](=O)[O-])cc1)OCC#CCOC(=O)Cc1ccc([N+](=O)[O-])cc1
inactive: HT-29 > 10 µM | RXF 393 > 10 µM | U-251 > 10 µM | SF-295 > 10 µM | MDA-MB-435 > 10 µM | SN12C > 10 µM | OVCAR-8 > 10 µM | NCI-H522 > 10 µM | SNB-19 > 10 µM | MCF7 > 10 µM | UO-31 > 10 µM | Hs-578T > 10 µM | A549 > 10 µM | 786-0 > 10 µM | SK-OV-3 > 10 µM

OC[C@H](O)[C@@H](OCc1ccccc1)[C@H](NCc1ccccc1)c1cccs1
inactive: HCT-116 99.5 µM | NCI-H226 > 100 µM | HT-29 60 µM | U-251 > 100 µM | SF-295 > 100 µM | MDA-MB-435 > 100 µM | RPMI-8226 92 µM | SN12C > 100 µM | OVCAR-8 > 100 µM | NCI-H522 > 100 µM | SNB-19 21.4 µM | MCF7 > 100 µM | UO-31 15.5 µM | A549 > 100 µM | 786-0 > 100 µM | CAKI-1 > 100 µM | SK-OV-3 > 100 µM

O=C1CCCc2cc3c(cc21)CCC3C(=O)O (stereo not drawn)
inactive: HCT-116 > 100 µM | NCI-H226 > 100 µM | HT-29 > 100 µM | RXF 393 > 100 µM | U-251 > 100 µM | SF-295 > 100 µM | RPMI-8226 > 100 µM | SN12C > 100 µM | OVCAR-8 > 100 µM | NCI-H522 > 100 µM | HCC 2998 > 100 µM | SNB-19 > 100 µM | MCF7 > 100 µM | UO-31 > 100 µM | Hs-578T > 100 µM | A549 > 100 µM | 786-0 > 100 µM | CAKI-1 > 100 µM | SK-OV-3 > 100 µM

C[C@@]1(O)CC[C@]2(C)C3CCCC3[C@H]12 (stereo partly drawn)
inactive: HCT-116 > 100 µM | NCI-H226 > 100 µM | HT-29 > 100 µM | RXF 393 > 100 µM | U-251 > 100 µM | SF-295 > 100 µM | RPMI-8226 > 100 µM | SN12C > 100 µM | OVCAR-8 > 100 µM | NCI-H522 > 100 µM | HCC 2998 > 100 µM | SNB-19 > 100 µM | UO-31 > 100 µM | A549 > 100 µM | 786-0 > 100 µM | CAKI-1 > 100 µM | SK-OV-3 > 100 µM

CC1=C(C(=O)CC(=O)C(=O)Nc2ccccc2C)Sc2ccccc2N1
inactive: HCT-116 > 40.6 µM | NCI-H226 > 100 µM | HT-29 > 100 µM | RXF 393 > 57.4 µM | U-251 > 61.2 µM | SF-295 > 100 µM | RPMI-8226 > 45 µM | SN12C > 100 µM | OVCAR-8 > 100 µM | NCI-H522 > 55 µM | HCC 2998 > 74.3 µM | SNB-19 > 100 µM | UO-31 > 100 µM | A549 > 69.3 µM | 786-0 > 45.5 µM | CAKI-1 > 100 µM | SK-OV-3 > 100 µM

FC(F)(F)c1ccc(C2SCc3nc4ccccc4n32)cc1 (stereo not drawn)
inactive: HCT-116 27.9 µM | NCI-H226 > 100 µM | HT-29 > 100 µM | RXF 393 97.5 µM | U-251 > 100 µM | SF-295 > 100 µM | RPMI-8226 12.4 µM | SN12C > 100 µM | OVCAR-8 > 100 µM | NCI-H522 > 10 µM | HCC 2998 > 100 µM | SNB-19 > 100 µM | UO-31 > 100 µM | A549 41.8 µM | 786-0 > 100 µM | CAKI-1 > 10 µM | SK-OV-3 18.2 µM

CCCC(=O)N(C)/N=N/c1ccc(C(=O)OCC)cc1
inactive: HCT-116 > 100 µM | NCI-H226 > 100 µM | HT-29 > 100 µM | RXF 393 > 100 µM | U-251 > 100 µM | SF-295 > 100 µM | RPMI-8226 > 100 µM | SN12C > 100 µM | OVCAR-8 > 100 µM | NCI-H522 52 µM | HCC 2998 > 100 µM | SNB-19 > 100 µM | MCF7 > 100 µM | UO-31 42.6 µM | Hs-578T > 100 µM | A549 > 100 µM | 786-0 > 100 µM | CAKI-1 > 100 µM

COc1cc([C@@H]2c3cc4c(cc3[C@@H](NC(=O)c3ccc([N+](=O)[O-])cc3)C3COC(=O)[C@@H]32)OCO4)cc(OC)c1O (stereo partly drawn)
active: HCT-116 0.678 µM | NCI-H226 0.104 µM | U-251 0.108 µM | SF-295 0.249 µM | RPMI-8226 0.256 µM | SN12C 0.215 µM | OVCAR-8 0.923 µM | NCI-H522 0.508 µM | SNB-19 0.315 µM | A549 0.0189 µM | 786-0 0.242 µM | CAKI-1 0.569 µM | SK-OV-3 0.334 µM
inactive: HT-29 1.58 µM | RXF 393 2.55 µM | HCC 2998 1.22 µM | UO-31 2.63 µM

CC1=CCC[C@H]2[C@](C)(CC3=CC(=O)C4SCCSC4C3=O)[C@@H](C)CC[C@]12C (stereo partly drawn)
inactive: HCT-116 13.8 µM | NCI-H226 15.9 µM | RXF 393 18.6 µM | U-251 14.5 µM | SF-295 10.9 µM | MDA-MB-435 8.09 µM | RPMI-8226 14.1 µM | SN12C 14.7 µM | OVCAR-8 19.2 µM | HCC 2998 21.9 µM | SNB-19 19 µM | MCF7 20.5 µM | UO-31 17.6 µM | A549 17.2 µM | 786-0 18.5 µM | CAKI-1 25.2 µM

CC[C@]1(Cc2ccc(OC)c(OC)c2)[C@@H]2C[C@@H](C(=O)OC)ON2O[C@H](OC2CCCC2(c2ccccc2)c2ccccc2)[C@@H]1OC(C)=O (stereo partly drawn)
inactive: HCT-116 > 100 µM | NCI-H226 > 100 µM | HT-29 > 100 µM | RXF 393 > 100 µM | U-251 > 100 µM | SF-295 > 100 µM | MDA-MB-435 > 100 µM | SN12C > 100 µM | OVCAR-8 > 100 µM | SNB-19 > 100 µM | MCF7 > 100 µM | UO-31 > 100 µM | A549 > 100 µM | 786-0 > 100 µM | CAKI-1 > 100 µM | SK-OV-3 > 100 µM

COc1cc(/C=C/c2ccc(OC)c(O)c2)cc(OC)c1
inactive: HCT-116 3.4 µM | NCI-H226 3.45 µM | HT-29 16.7 µM | RXF 393 1.25 µM | U-251 3.92 µM | SF-295 1.96 µM | RPMI-8226 2.19 µM | SN12C 8.51 µM | OVCAR-8 5.92 µM | NCI-H522 1.69 µM | HCC 2998 20.3 µM | SNB-19 3.87 µM | UO-31 9.46 µM | A549 4.82 µM | 786-0 15.7 µM | CAKI-1 25.5 µM | SK-OV-3 36.1 µM
